Data published in ChEMBL document CHEMBL1201862, “PubChem BioAssay data set” (2004).
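How tested: cells in 96-well plates exposed to compound for 48 hours at five concentrations. GI50 marks 50% less growth.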 The source made the active and inactive calls. No stated cut-off is given here; in the data, active = GI50 up to about 1.1 µM and inactive = higher.

How the values were obtained:
Assay in all cases: NCI-60 cell line screen, 48 h
[1] = tested on: OVCAR-5
[2] = tested on: SNB-75
[3] = tested on: RXF 393
[4] = tested on: NCI-H23
[5] = tested on: MOLT-4
[6] = tested on: COLO 205
[7] = tested on: T47D
[8] = tested on: SNB-19
[9] = tested on: MDA-N
[10] = tested on: MDA-MB-231
[11] = tested on: M14
[12] = tested on: OVCAR-8
[13] = tested on: SF-268
[14] = tested on: SK-MEL-2
[15] = tested on: HCT-116
[16] = tested on: K562
[17] = tested on: DU-145
[18] = tested on: SF-539
[19] = tested on: LOX IMVI

Measured: GI50

O=C1C=C(Nc2nc(O)cc(C(=O)O)n2)c2ccccc2C1=O
inactive: [1] > 100 µM | [2] > 100 µM | [3] > 100 µM | [4] > 100 µM | [5] > 100 µM | [6] > 100 µM | [7] > 100 µM | [8] > 100 µM | [9] > 100 µM | [10] > 100 µM | [11] > 100 µM | [12] > 100 µM | [13] > 100 µM | [14] > 100 µM | [15] > 100 µM | [16] > 100 µM | [17] > 100 µM | [18] > 100 µM | [19] > 100 µM

CN(CC(=O)O)Cc1c(O)c(Cl)cc(Cl)c1Cl
inactive: [1] 26.5 µM | [2] 92.5 µM | [3] 76.4 µM | [4] 95.3 µM | [6] 34.6 µM | [7] 54.1 µM | [8] 48.4 µM | [9] 47.2 µM | [10] 45.2 µM | [11] 22.2 µM | [12] 29.2 µM | [13] 21.4 µM | [14] 27.2 µM | [15] 12.5 µM | [17] 34.4 µM | [18] 22.4 µM | [19] 14 µM

COC(=O)C1=C(C(=O)OC)C2OC1c1cc3ccccc3cc12
inactive: [1] 4.88 µM | [2] 23.3 µM | [3] 1.77 µM | [4] 5.96 µM | [5] 1.54 µM | [6] 1.82 µM | [7] 2.61 µM | [8] 18.7 µM | [9] 6.62 µM | [10] 17.7 µM | [11] 2.1 µM | [12] 4.49 µM | [13] 18.3 µM | [14] 15.4 µM | [15] 1.74 µM | [17] 7.78 µM | [18] 6.27 µM | [19] 15.2 µM

CC(=O)O[C@@H]1[C@H]2[C@@H](OC(=O)c3ccccc3)[C@@H](C)C[C@]2(O)[C@H](OC(C)=O)[C@@]2(C)[C@@H]3CC(C)(C)C(=O)[C@]3(OC(C)=O)C[C@@]12C
inactive: [1] > 25 µM | [2] 1.95 µM | [3] > 25 µM | [4] > 25 µM | [5] 2.09 µM | [6] 7.05 µM | [7] > 25 µM | [8] > 25 µM | [9] 8.91 µM | [10] > 25 µM | [11] 20.8 µM | [12] 20.6 µM | [13] > 25 µM | [14] > 25 µM | [15] > 25 µM | [17] > 25 µM | [18] 13.2 µM | [19] > 25 µM

Clc1ccc(Cl)c(NNc2cc(Cl)ccc2Cl)c1
inactive: [1] > 10 µM | [3] 6.22 µM | [4] 2.82 µM | [5] > 10 µM | [6] > 10 µM | [7] 4.28 µM | [8] 9.79 µM | [9] 5.57 µM | [10] > 10 µM | [11] > 10 µM | [12] 7.64 µM | [13] 4.69 µM | [14] 2.83 µM | [15] 3.84 µM | [16] > 10 µM | [17] 5.37 µM | [18] > 10 µM | [19] 3.57 µM

C[C@H](CCC1=NCCN1)[C@H]1CC[C@H]2[C@@H]3[C@H](O)C[C@@H]4C[C@H](O)CC[C@]4(C)[C@H]3CC[C@]12C
inactive: [1] 14.5 µM | [2] 10.6 µM | [3] 15.8 µM | [4] 14.3 µM | [5] 11.1 µM | [6] 8.57 µM | [7] 14.8 µM | [8] 13.4 µM | [9] 17.3 µM | [10] 16.7 µM | [11] 15.3 µM | [12] 15.6 µM | [13] 13.2 µM | [14] 16.3 µM | [15] 13.6 µM | [16] 6.3 µM | [17] 14.3 µM | [18] 12.9 µM | [19] 10.3 µM

O=C(C(=O)n1ccc2ccccc21)n1ccc2ccccc21
inactive: [1] > 100 µM | [2] 10.7 µM | [3] 88.7 µM | [4] 75.3 µM | [5] > 100 µM | [6] > 100 µM | [7] > 100 µM | [8] 54.6 µM | [9] > 100 µM | [10] > 100 µM | [12] 59.7 µM | [13] 84.7 µM | [14] > 100 µM | [15] > 100 µM | [16] 71.4 µM | [17] > 100 µM | [18] 37 µM | [19] > 100 µM
